Test: Plasma protein binding rate (PPB), human plasma
Format: in vitro ADME
Conditions: 2 μM, dialysis 4 hours 37° C.
Method: 796 μL of bank plasma from humans, SD rats and CD-1 mice (plasma purchased from BioreclamationIVT) were weighed, and the assay compound working solution or warfarin working solution was added so that the final concentration of the assay compound and warfarin in the plasma sample was 2 μM. The samples were mixed thoroughly. The final concentration of DMSO in the organic phase was 0.5%, 50 μL of plasma samples of the assay compound and warfarin were pipetted to a sample receiving plate, and the corresponding volume of the corresponding blank plasma or buffer was added immediately, so that the final volume in each sample well was 100 μL, wherein the volume ratio of plasma:dialysis buffer was 1:1. Stop solution was then added to these samples. These samples were used as T0 samples for determination of recovery and stability. The plasma samples of the assay compound and warfarin were added to the dosing end of each dialysis well, and blank dialysis buffer was added to the corresponding receiving end of the dialysis well. […] All samples were subjected to protein precipitation, and then analyzed by LC/MS/MS. Unbound rate (% Unbound), bound rate (% Bound), and recovery rate (% Recovery) of the compound were calculated using the following formulae: % Unbound=100*FC/TC, % Bond=100−% Unbound, and % Recovery=100*[…]/T0, […]

## CN1C(=S)[C@@H](NC(=O)c2ncn(Cc3ccccc3)n2)COc2cccnc21 [WX009]
  PPB_Unbound: 5.7%
